From US20230241083A1, “FORMULATION COMPRISING CANNABINOIDS” (CANNOVEX BV, priority 2020, published 2023)

Assay: Stability study of THC in a receiver solution
Assay type: physicochemical
Settings: receiver solution EtOH:H2O (50/50 vol); 3, 6, 8, 24, 30, 48 hours
Text: FIG. 2: Stability study of THC in a receiver solution.

Structure (SMILES): CCCCCc1cc(O)c2c(c1)OC(C)(C)[C@@H]1CCC(C)=C[C@@H]21 [THC, Delta-9-tetrahydrocannabinol]
- THC concentration over time in receiver solution (stability): does not decay over time
